Values joined by “and” are separate entries in the source; they are usually repeats but may differ in a detail not shown here. Equal entries are not always repeated. Blank lines part the entries; values can stand above or below the compound they belong to.
Assays:
[1] = test system: Plasmodium falciparum strain 3D7; assay: Plasmodium falciparum growth inhibition, SYBR green fluorescence; assay type: cell-based; conditions: 3D7, growth inhibition, read-out: Pf (3D7) EC50
[2] = molecular target: T1, PfProRS (Plasmodium falciparum, UniProt Q8I5R7); assay: biochemical; assay type: biochemical; conditions: for IC50: read-out: Pf ProRS IC50; for PfProRS activity in words: SAR text to Table 1
T1 construct: B2, AA7–746 (minus 6 amino acids, or 99% of the ORF); made in house; host or cells: E. coli BL21(DE3)R3 Rosetta Oxford
T1 sequence (Q8I5R7 7-746): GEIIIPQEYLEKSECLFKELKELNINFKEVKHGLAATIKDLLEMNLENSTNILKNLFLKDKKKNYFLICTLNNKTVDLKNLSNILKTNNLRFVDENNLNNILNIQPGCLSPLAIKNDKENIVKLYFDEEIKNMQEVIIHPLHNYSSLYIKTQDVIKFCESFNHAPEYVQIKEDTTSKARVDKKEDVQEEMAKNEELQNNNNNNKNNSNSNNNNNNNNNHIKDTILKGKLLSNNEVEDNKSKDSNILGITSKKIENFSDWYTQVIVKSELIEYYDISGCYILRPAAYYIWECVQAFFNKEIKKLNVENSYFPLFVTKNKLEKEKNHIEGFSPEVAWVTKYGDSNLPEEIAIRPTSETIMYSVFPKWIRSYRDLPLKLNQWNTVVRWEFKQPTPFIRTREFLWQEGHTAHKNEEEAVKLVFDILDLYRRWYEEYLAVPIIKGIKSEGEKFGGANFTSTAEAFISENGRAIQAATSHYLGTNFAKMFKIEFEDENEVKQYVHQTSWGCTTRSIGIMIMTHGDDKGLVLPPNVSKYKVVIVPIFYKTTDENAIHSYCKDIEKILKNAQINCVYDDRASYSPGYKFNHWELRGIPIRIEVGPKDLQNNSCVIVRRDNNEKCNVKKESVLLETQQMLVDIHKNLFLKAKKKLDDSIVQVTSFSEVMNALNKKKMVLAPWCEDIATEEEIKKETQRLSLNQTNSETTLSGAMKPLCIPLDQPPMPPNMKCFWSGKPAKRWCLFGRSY

[3] = molecular target: T1, PfProRS; assay type: binding
[4] = molecular target: T1, PfProRS; assay: luciferase ATP depletion assay, HTS format; assay type: biochemical
[5] = molecular target: T2, HsProRS (Homo sapiens, UniProt P07814); assay: luciferase ATP depletion assay, counter-screen; assay type: biochemical
T2 construct: made in house
T2 sequence (P07814 1007-1512 limits assumed): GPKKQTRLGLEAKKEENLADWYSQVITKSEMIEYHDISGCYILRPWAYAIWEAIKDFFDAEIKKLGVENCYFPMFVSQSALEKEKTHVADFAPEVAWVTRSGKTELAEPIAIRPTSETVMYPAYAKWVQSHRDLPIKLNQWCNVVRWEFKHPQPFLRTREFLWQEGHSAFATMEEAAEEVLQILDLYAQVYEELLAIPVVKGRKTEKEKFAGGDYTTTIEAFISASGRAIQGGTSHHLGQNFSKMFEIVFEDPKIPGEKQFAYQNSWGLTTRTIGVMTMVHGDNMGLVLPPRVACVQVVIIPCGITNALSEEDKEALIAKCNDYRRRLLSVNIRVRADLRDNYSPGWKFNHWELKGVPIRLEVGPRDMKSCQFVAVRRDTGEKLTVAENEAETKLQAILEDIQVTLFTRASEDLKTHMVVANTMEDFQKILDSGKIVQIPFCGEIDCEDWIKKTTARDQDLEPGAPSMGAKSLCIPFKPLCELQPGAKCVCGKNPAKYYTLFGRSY

[6] = molecular target: T1, PfProRS; assay: aminoacylation assay ([3H]-L-proline incorporation into tRNA); assay type: biochemical
[7] = molecular target: T1, PfProRS; assay: ATP consumption assay with proline or ATP varied (competition); assay type: biochemical; conditions: from IC50 vs [ATP] fit
[8] = test system: isolated 3D7 trophozoites (pHi); assay: pH assay, BCECF-loaded isolated trophozoites; conditions: TCMDC-124506 5 μM; KAE609 50 nM
[9] = read-out: Percentage inhibition Pf ProRS

IC50 [2]: > 50 µM
Compound: NC(=O)Cn1nc(C(F)(F)F)c(-c2ccc(F)cc2)c1NC(=O)Nc1ccc(F)cc1 [Compound 9]
EC50 [1]: > 50 µM

IC50 [2]: > 50 µM
Compound: Cn1nc(C(F)(F)F)c(-c2ccc(F)cc2)c1NC(=O)Nc1ccnc(N2CCOCC2)c1 [Compound 6]
EC50 [1]: > 50 µM

IC50 [2]: > 50 µM
Compound: Cn1ncc(-c2ccc(F)cc2)c1NC(=O)Nc1ccc(F)cc1 [Compound 18]
EC50 [1]: 27 µM

PfProRS activity in words [2]: inactive
IC50 [2]: > 50 µM
Compound: Cn1nc(C(F)(F)F)c(-c2ccc(F)cc2)c1N [Compound 2]
EC50 [1]: 5 µM

IC50 [2]: 14 µM
Compound: Cn1nc(C(N)=O)c(-c2ccc(F)cc2)c1NC(=O)Nc1ccc(F)cc1 [Compound 20]
EC50 [1]: > 50 µM

Compound: O=C(CC1NCCCC1O)Cn1cnc2cc(Br)c(Cl)cc2c1=O (stereo not shown) [halofuginone]
change in thermal stability ([3]; full-length recombinant protein B1): no increase in stability
shift in stability (thermal melt) ([3]; recombinant protein B2): 6 °
IC50 ([4]; PfProRS IC50, 75 nM ProRS, 60 μM proline, 6 μM ATP, 400 μg/mL yeast tRNA, 2 h 37 °C): 0.28 µM
IC50 ([4]; PfProRS IC50, luciferase ATP depletion assay): 0.275 µM
inhibition at 0.02 µM [4, 9]: -0.05%
inhibition at 0.05 µM [4, 9]: 2.49%
inhibition at 0.1 µM [4, 9]: 10.8%
inhibition at 0.2 µM [4, 9]: 34.4%
inhibition at 0.39 µM [4, 9]: 69%
inhibition at 0.78 µM [4, 9]: 90%
inhibition at 1.56 µM [4, 9]: 98.9%
inhibition at 3.13 µM [4, 9]: 99.1%
inhibition at 6.25 µM [4, 9]: 95%
inhibition at 12.5 µM [4, 9]: 93.6%
inhibition at 25 µM [4, 9]: 93.9%
IC50 ([5]; 75 nM ProRS, 60 μM proline, 6 μM ATP, 400 μg/mL yeast tRNA, 2 h 37 °C): 2 µM and 2.13 µM
fold difference between PfProRS and HsProRS IC50 ([5]; HsProRS vs PfProRS): ≤ 8 fold
inhibition at 0.02 µM ([5]; at 0.02 μM, read-out: Percentage inhibition Hs ProRS): 0.15%
inhibition at 0.05 µM ([5]; at 0.05 μM, read-out: Percentage inhibition Hs ProRS): -0.14%
inhibition at 0.1 µM ([5]; at 0.10 μM, read-out: Percentage inhibition Hs ProRS): 0.21%
inhibition at 0.2 µM ([5]; at 0.20 μM, read-out: Percentage inhibition Hs ProRS): 1.95%
inhibition at 0.39 µM ([5]; at 0.39 μM, read-out: Percentage inhibition Hs ProRS): 9.43%
inhibition at 0.78 µM ([5]; at 0.78 μM, read-out: Percentage inhibition Hs ProRS): 24.7%
inhibition at 1.56 µM ([5]; at 1.56 μM, read-out: Percentage inhibition Hs ProRS): 46.5%
inhibition at 3.13 µM ([5]; at 3.13 μM, read-out: Percentage inhibition Hs ProRS): 64.1%
inhibition at 6.25 µM ([5]; at 6.25 μM, read-out: Percentage inhibition Hs ProRS): 74.3%
inhibition at 12.5 µM ([5]; at 12.50 μM, read-out: Percentage inhibition Hs ProRS): 85.7%
inhibition at 25 µM ([5]; at 25.00 μM, read-out: Percentage inhibition Hs ProRS): 89.2%
IC50 [6]: 0.011 µM

IC50 [2]: 8 µM
Compound: Cn1nc(CCC(N)=O)c(-c2ccc(F)cc2)c1NC(=O)Nc1ccc(F)cc1 [Compound 21]
EC50 [1]: > 50 µM

PfProRS activity in words [2]: inactive
IC50 [2]: > 50 µM
Compound: Cn1nc(C(F)(F)F)c(Br)c1NC(=O)Nc1ccc(F)cc1 [Compound 11, 1-[4-bromo-2-methyl-5-(trifluoromethyl)pyrazol-3-yl]-3-(4-fluorophenyl)urea]
EC50 [1]: 16 µM

IC50 [2]: > 50 µM
Compound: Cn1nc(C(F)(F)F)c(-c2cccc(C(F)(F)F)c2)c1NC(=O)Nc1ccc(F)cc1 [Compound 17]
EC50 [1]: 0.9 µM

PfProRS activity in words [2]: inactive
IC50 [2]: > 50 µM
Compound: Cn1nc(C(F)(F)F)cc1NC(=O)Nc1ccc(F)cc1 [Compound 10, 1-(4-fluorophenyl)-3-(1-methyl-3-(trifluoromethyl)-1H-pyrazol-5-yl)urea]
EC50 [1]: 46 µM

IC50 [2]: 18 µM
Compound: Cn1nc(CCO)c(-c2ccc(F)cc2)c1NC(=O)Nc1ccc(F)cc1 [Compound 19]
EC50 [1]: 20 µM

Compound: Nc1ncnc2c1ncn2[C@@H]1O[C@H](COP(=O)(O)OP(=O)(O)OP(=O)(O)O)[C@@H](O)[C@H]1O [ATP]
Km [7]: 6.51 ± 1.84 µM

IC50 [2]: 2.5 µM
Compound: Cn1nc(C(F)(F)F)c(-c2ccc(F)cc2)c1NC(=O)Nc1ccc(F)cc1F [Compound 3]
EC50 [1]: 0.7 µM

IC50 [2]: 4 µM
Compound: CN(C)CCc1nn(C)c(NC(=O)Nc2ccc(F)cc2)c1-c1ccc(F)cc1 [Compound 25]
EC50 [1]: > 50 µM

drop in PfProRS potency versus hit compound [2]: 4 fold
IC50 [2]: 20 µM
Compound: Cn1nc(C(F)(F)F)c(-c2ccccc2CO)c1NC(=O)Nc1ccc(F)cc1 [Compound 13]
EC50 [1]: 8 µM

PfProRS activity in words [2]: inactive
IC50 [2]: > 50 µM
Compound: O=C(Nc1ccc(F)cc1)Nc1[nH]nc(C(F)(F)F)c1-c1ccc(F)cc1 [Compound 7]
EC50 [1]: > 50 µM

IC50 [2]: 6 µM
Compound: Cn1nc(CC#N)c(-c2ccc(F)cc2)c1NC(=O)Nc1ccc(F)cc1 [Compound 23]
EC50 [1]: 4 µM

PfProRS activity in words [2]: inactive
IC50 [2]: > 50 µM
Compound: Cn1nc(C(F)(F)F)c(-c2cccc(CNS(C)(=O)=O)c2)c1NC(=O)Nc1ccc(F)cc1 [Compound 16]
EC50 [1]: 10 µM

IC50 [2]: > 50 µM
Compound: COc1ccc(NC(=O)Nc2c(-c3ccc(F)cc3)c(C(F)(F)F)nn2C)cc1 [Compound 5]
EC50 [1]: > 50 µM

Compound: CC(C)(C)OC(=O)N1CCC[C@@H](O)[C@@H]1CC(=O)Cn1cnc2cc(Br)c(Cl)cc2c1=O [N-Boc-halofuginone]
IC50 ([6]; Hill slope = 1, Figure S2, read-out: IC50, [3H]-L-proline aminoacylation incorporation assay): > 3 µM
inhibition of aminoacylation ([6]; at the highest concentrations tested): < 20%

IC50 [2]: 8 µM
Compound: Cn1nc(C(F)(F)F)c(-c2ccc(F)cc2)c1NC(=O)Nc1cccc(F)c1 [Compound 4]
EC50 [1]: 0.35 µM

IC50 [2]: 3 µM
Compound: Cn1nc(CCN2CCOCC2)c(-c2ccc(F)cc2)c1NC(=O)Nc1ccc(F)cc1 [Compound 26]
EC50 [1]: 10 µM

IC50 [2]: > 50 µM
Compound: O=C(Nc1ccc(F)cc1)Nc1c(-c2ccc(F)cc2)c(C(F)(F)F)nn1CCO [Compound 8]
EC50 [1]: > 50 µM

Compound: C[C@H]1Cc2c([nH]c3cc(Cl)c(F)cc23)[C@@]2(N1)C(=O)Nc1ccc(Cl)cc12 [KAE609, reference compound]
effect on parasite cytosolic pH (pHi) [8]: caused an increase in pHi
